Assay results from patent publication US7425548B2, “Materials and methods for immune system stimulation” (Variety Chidren's Hospital, priority 2004, dated 2008).

Test system: normal lymphocytes
Experiment: Oxidative stress (GSH/GSSG levels)
Format: cell-based, human
Conditions: for GSH / GSH/GSSG / GSSG: 24 hours
Protocol: Oxidative stress (GSH/GSSG levels). The measure of the reduced (GSH) as well as oxidized (GSSG) levels of glutathione and their ratio are useful indicators for oxidative stress. The levels of GSH and GSSG were assayed by a colorimetric method using Biotech GSH/GSSG-412 kit (Oxis Research, Portland, Oreg.) according to manufacturer's protocol. Briefly, normal blood samples from healthy donors were incubated with different concentrations of RR1 for 24 hours in a 5% CO2 incubator at 37° C. For GSSG, 100 μl of each of the treated sample was frozen at −70° C. for 4 hours, thawed and added 290 μl of 5% meta phosphoric acid (MPA). The samples were vortexed for 15-20 seconds and centrifuged at 1000×g for 10 minutes. MPA extract (50 μl) was added to 700 μl of GSSG buffer that was used for the calorimetric assay. For GSH measurement 50 μl of the whole blood was frozen at −70° C., thawed and added 350 μl of 5% MPA, vortexed for 15-20 seconds and centrifuged at 10,000×g for 10 minutes. MPA extract (50 μl) was added to 3 ml of the assay buffer and used for further analysis. MPA buffer mixture (200 μl) of each standard and sample was transferred to a spectrophotometer cuvette, added 200 μl of chromogen followed by 200 μl of enzyme in the order and incubated at room temperature for 5 minutes. Afterwards, 200 μl of NADPH was added into the cuvette and changes in the absorbance at 412 nm were recorded in a BECKMAN spectrophotometer. The reaction rates were plotted using the absorbance values and the levels of GSH and GSSG were determined.

Substance: (1,4)-α-D-glucan [RR1]
- GSH (RR1 5 μg/ml): 365.08 ± 3.81 µM
- GSH/GSSG (RR1 5 μg/ml): 14.05 ± 0.41
- GSSG (RR1 5 μg/ml): 22.77 ± 0.58 µM
- GSH (RR1 10 μg/ml): 366.10 ± 0.97 µM
- GSH/GSSG (RR1 10 μg/ml): 14.34 ± 0.35
- GSSG (RR1 10 μg/ml): 22.67 ± 0.41 µM
- GSH (RR1 50 μg/ml): 364.43 ± 0.10 µM
- GSH/GSSG (RR1 50 μg/ml): 14.25 ± 0.40
- GSSG (RR1 50 μg/ml): 22.75 ± 0.55 µM
- oxidative stress in lymphocytes (indicated by GSH, GSSG and their ratio): does not produce any oxidative stress
